Laboratory results reported in PMC8002023, “3D Pharmacophore-Based Discovery of Novel KV10.1 Inhibitors with Antiproliferative Activity” (Cancers, 2021).
Like-named read-outs stand apart in the source and are kept apart here.

Assays:
KV10.1 [1] = molecular target: T1, KV10.1 (Homo sapiens, UniProt O95259); parameters: method as in PMID 15365094; conditions: open-channel blocker; cited from earlier work
T1 construct: expressed in transfected cells
T1 sequence (O95259 1-962 isoform O95259-2): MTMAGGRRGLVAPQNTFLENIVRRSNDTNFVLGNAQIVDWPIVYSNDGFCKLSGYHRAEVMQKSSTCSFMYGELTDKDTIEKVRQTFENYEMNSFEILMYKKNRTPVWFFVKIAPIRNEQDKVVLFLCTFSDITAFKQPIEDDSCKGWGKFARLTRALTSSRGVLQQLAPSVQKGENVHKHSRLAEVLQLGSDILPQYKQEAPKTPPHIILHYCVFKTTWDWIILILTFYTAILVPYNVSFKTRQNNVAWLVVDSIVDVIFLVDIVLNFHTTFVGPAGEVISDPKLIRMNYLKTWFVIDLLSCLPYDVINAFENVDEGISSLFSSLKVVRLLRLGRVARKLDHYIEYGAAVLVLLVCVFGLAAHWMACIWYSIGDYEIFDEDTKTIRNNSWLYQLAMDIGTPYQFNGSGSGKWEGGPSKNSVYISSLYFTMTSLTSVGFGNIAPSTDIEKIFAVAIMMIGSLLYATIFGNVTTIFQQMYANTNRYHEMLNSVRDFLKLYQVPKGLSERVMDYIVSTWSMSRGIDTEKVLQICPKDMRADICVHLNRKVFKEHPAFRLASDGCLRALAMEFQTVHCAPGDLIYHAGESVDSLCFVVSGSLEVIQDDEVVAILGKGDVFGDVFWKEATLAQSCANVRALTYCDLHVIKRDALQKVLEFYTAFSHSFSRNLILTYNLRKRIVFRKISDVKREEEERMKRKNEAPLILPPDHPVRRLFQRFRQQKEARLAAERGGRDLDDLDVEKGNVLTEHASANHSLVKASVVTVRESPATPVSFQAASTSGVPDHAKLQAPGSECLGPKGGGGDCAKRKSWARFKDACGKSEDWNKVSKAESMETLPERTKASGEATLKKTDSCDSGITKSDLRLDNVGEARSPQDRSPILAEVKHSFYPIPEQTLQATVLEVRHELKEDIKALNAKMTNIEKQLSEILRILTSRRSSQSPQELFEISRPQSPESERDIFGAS

KV10.1 [2] = molecular target: T1, KV10.1; assay: Whole-cell patch clamp on HEK-293 cells stably expressing KV10.1; assay type: cell-based; conditions: for inhibition at 10 µM: HEK293, mean ± standard error (or range); for KV10.1 inhibitory activity: SAR discussion of Table 3 (10 μM)
Panc1 cells = assay: Cell growth in 2D culture (Incucyte confluence, 72 h), Panc1; assay type: cell-based; conditions: Homo sapiens, PANC-1, no KV10.1 and high hERG expression
Experimental: (§1) Cell lines MCF-7 (DSMZ ACC 115), PANC-1 (DSMZ ACC 783), and hTERT-RPE1 (ATCC CRL 4000) were grown in the media recommended by the cell provider in a humidified atmosphere at 5% CO2 and 37 °C. For cell growth experiments, 10^4 cells/well were seeded in 96-well flat bottom culture plates (Corning) and allowed to grow for 24 h. The compounds were then added in the corresponding growth medium, and the plate was imaged every hour for 72 h (two images per well and eight wells per condition in two independent experiments for compound 8 and five for ZVS-08 and compound 1) in an Incucyte system (Sartorius/Essen biosciences). Culture confluence was determined in the phase contrast images and is expressed as percent confluence per well. The growth was then normalised to the value in the absence of compounds.
KV10.1 inhibitors with a favourable pharmacological profile are promising candidates for cancer therapy. […] Different concentrations of the compounds were added to the culture medium and the growth of the cell was monitored over 72 h (Figure 14).

KV10.1 [3] = molecular target: T1, KV10.1; assay: Whole-cell patch clamp on HEK-293 cells stably expressing KV10.1; assay type: cell-based; conditions: for inhibition at 50 µM: HEK293, compound concentration 50 μM, stimuli to +40 mV, mean ± standard error, read-out: Effect on Kv10.1 (% Inhibition)
Experimental: (§2) Whole-cell patch clamp experiments were performed on stably transfected HEK-293 cells. The cells were grown on fibronectin-coated glass coverslips in DMEM supplemented with 10% FCS and 300 µg/mL Zeocin. Experiments were performed at room temperature under continuous perfusion. The extracellular solution contained (mM) 160 NaCl, 2.5 KCl, 2 CaCl2, 1 MgCl2, 10 Hepes/NaOH, pH 7.4, 8 glucose. For the experiments determining conductance–voltage relationships, tail currents were made visible by substituting 60 mM NaCl by KCl ([…], 100 NaCl). Pipettes were pulled from #1 glass capillaries (WPI) to resistances of 1–3 MΩ when loaded with the intracellular solution (100 KCl, 45 N-methyl-D-glucamine, 10 1,2-bis(o-aminophenoxy)ethane-N,N,N′,N′-tetraacetic acid (BAPTA), 10 Hepes pH 7.35). Data acquisition was performed using a EPC10 Plus amplifier (HEKA Elektronik) and Patch Master software. Drug application was performed using an 8-channel fast solution exchanger (ALA). All compounds were dissolved in DMSO to a final concentration of 10 mM. 0.5% DMSO in extracellular solution served as control. KV10.1 currents were elicited by 500 ms depolarisations to +40 mV under continuous perfusion with the compound-containing or control solution. hERG current amplitudes were measured as the peak tail current during a 4 s repolarization to −40 mV after a depolarising pulse to +20 mV lasting for 2 s.
The nine selected in silico hits were tested by manual patch-clamp on a HEK293 cell line stably expressing KV10.1 [33] at a compound concentration of 50 μM (Table 1). Compound activity was tested by determining the current amplitude elicited by repetitive stimuli to +40 mV from a holding potential of −80 mV. […] The hit compound ZVS-08 represents a new structural class of KV10.1 inhibitors with diarylamine structure and has a unique structure among the acquired virtual screening hits. […] The most notable change from the purpurealidin analogues is the replacement of the hydrogen bond acceptor group of the amide bond with the oxygen atom of the nitro group of ZVS-08.

MCF-7 cells = assay: Cell growth in 2D culture (Incucyte confluence, 72 h), MCF-7; assay type: cell-based; conditions: high KV10.1 and low hERG expression
Experimental: as §1
KV10.1 inhibitors with a favourable pharmacological profile are promising candidates for cancer therapy. To investigate the activity of the new compounds on cancer cells proliferation, compounds ZVS-08, 1 and 8 were tested on MCF-7, a breast cancer cell line showing high KV10.1 expression and low hERG expression, and on Panc1, a pancreatic cancer cell line with undetectable KV10.1 expression and high level of hERG expression. hTERT-RPE1 cells served as a non-cancer cell line. hTERT-RPE1 cells show transient physiological expression of Kv10.1 that begins during the G2 phase of the cell cycle and extends through mitosis as present in normal cells. Different concentrations of the compounds were added to the culture medium and the growth of the cell was monitored over 72 h (Figure 14).

Colo357 tumour spheroids = assay: Apoptosis (caspase 3/7 reporter) in tumour spheroids; assay type: cell-based; conditions: 50 µM, caspase reporter fluorescence over 72 h, 8.9 µM cycloheximide as sensitizer
Experimental: Spheroids were cultured in round bottom ultra-low attachment 96-well plates (Corning) at a density of 5000 cells/well in 2% Matrigel (Corning) and centrifuged at 1000× g for 10 min. Spheroid formation was monitored continuously in the Incucyte system and treatments were added once spheroids were formed. As apoptosis sensitizer, 8.9 µM cycloheximide was added to controls and treated spheroids. Caspase 3/7 green reagent (Sartorius; 1:1000) was used as recommended by the manufacturer. Caspase 3/7 reagent substrate crosses the cell membrane and its cleavage by activated caspase-3/7 results in the release of a DNA dye and fluorescent staining of nuclear DNA.
To test the ability of the compounds to inhibit tumour progression in a more predictive system, we performed experiments on tumour spheroids of the pancreatic cancer cell line Colo357, which grows efficiently in this culture modality. The cells were seeded in the presence of Matrigel (see methods), allowed to form spheroids, and the compounds (50 µM) were added to the growth medium. The control contained the same amount of the vehicle (0.5% DMSO). Apoptosis was monitored by addition of a fluorescent […] activity reporter at the same time as the compounds. Cleavage of the reporter by caspase results in green florescence, and the intensity of the fluorescence was recorded over 72 h.

hERG = molecular target: T2, hERG (Homo sapiens, UniProt Q12809); assay: Whole-cell patch clamp on stably transfected HEK-293 cells, hERG tail current; assay type: cell-based; conditions: peak tail current at −40 mV after +20 mV
T2 construct: expressed in transfected cells
Experimental: as §2

T2 sequence (Q12809 whole entry): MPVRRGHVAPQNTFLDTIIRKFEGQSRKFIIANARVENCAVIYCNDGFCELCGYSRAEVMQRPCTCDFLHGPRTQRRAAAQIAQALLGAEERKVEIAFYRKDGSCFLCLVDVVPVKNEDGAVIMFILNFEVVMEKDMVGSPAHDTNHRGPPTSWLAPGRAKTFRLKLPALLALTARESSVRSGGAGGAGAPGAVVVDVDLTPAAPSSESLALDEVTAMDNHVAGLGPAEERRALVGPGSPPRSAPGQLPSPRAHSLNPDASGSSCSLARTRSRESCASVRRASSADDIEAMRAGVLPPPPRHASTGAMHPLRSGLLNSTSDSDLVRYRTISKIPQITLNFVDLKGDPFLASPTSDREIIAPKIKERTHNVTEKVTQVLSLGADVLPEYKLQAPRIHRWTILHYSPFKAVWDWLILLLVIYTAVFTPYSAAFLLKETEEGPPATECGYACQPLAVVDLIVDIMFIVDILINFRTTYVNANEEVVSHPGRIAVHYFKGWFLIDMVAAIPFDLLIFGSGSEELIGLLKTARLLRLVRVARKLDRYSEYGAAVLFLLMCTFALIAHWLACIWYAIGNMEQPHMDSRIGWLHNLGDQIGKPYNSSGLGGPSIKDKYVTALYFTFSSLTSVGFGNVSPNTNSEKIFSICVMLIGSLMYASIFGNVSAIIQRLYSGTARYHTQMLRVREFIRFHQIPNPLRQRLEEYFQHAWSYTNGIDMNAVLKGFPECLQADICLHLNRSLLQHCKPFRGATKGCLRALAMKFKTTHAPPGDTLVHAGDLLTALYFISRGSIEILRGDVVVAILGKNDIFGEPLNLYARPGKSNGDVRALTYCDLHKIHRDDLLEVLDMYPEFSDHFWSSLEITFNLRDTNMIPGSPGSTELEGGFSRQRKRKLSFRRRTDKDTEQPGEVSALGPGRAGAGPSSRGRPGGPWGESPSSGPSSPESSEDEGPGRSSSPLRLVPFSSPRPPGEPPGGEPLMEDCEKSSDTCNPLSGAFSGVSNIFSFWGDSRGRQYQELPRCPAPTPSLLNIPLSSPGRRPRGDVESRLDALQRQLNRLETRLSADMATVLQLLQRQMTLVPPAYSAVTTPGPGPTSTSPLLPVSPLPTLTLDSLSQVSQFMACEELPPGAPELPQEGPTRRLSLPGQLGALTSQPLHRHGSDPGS

SMILES | inhibition at 10 µM (KV10.1 [2]) | inhibition at 50 µM (KV10.1 [3]) | other results
COc1ccc(CCN2CCC(Nc3nc4ccccc4n3Cc3ccc(F)cc3)CC2)cc1 [astemizole] | – | – | IC50 (KV10.1 [1]): ~200 nM
CN(C)CC(O)COc1ccc(Nc2ccccc2)cc1 (stereo not drawn) [Compound 3] | 22.1 ± 33.5% | – | KV10.1 inhibitory activity (KV10.1 [2]): almost inactive; melting point: 88 to 90.1 °C
CN(C)CCCOc1ccc(Nc2ccc(C(F)(F)F)cc2[N+](=O)[O-])cc1 [Compound 1] | 87.3 ± 4.6% | – | IC50 (Panc1 cells): > 30000 nM; IC50 (KV10.1 [3]; HEK-293, 500 ms depolarisation to +40 mV, read-out: IC50 Kv10.1): 740 nM; IC50 (MCF-7 cells; Homo sapiens, MCF7, 72 h): 5480 nM; IC50 (MCF-7 cells): ~5000 nM; apoptosis induction in tumour spheroids (Colo357 tumour spheroids): required longer time, but reached similar efficacy; IC50 (hERG): 207 nM
CN(C)Cc1cncc(C2CCCN2C(=O)c2ccc3c(c2)CCC3)n1 (stereo not drawn) [ZVS-09] | – | 0.15 ± 1.67% | –
CN(C)CCCOc1ccc(Nc2ccccc2[N+](=O)[O-])cc1 [Compound 4] | 36.6 ± 19.9% | – | –
CN1CCOC(c2nccc(CNC(=O)Cc3cccs3)n2)C1 (stereo not drawn) [ZVS-03] | – | -1.14 ± 3.47% | –
O=C(CCN1CCOCC1)Nc1ccc(S(=O)(=O)Nc2cc(Cl)cc(Cl)c2)cc1 [ZVS-04] | – | -0.86 ± 0.75% | –
COC(=O)c1ccccc1Nc1ccc(OCC(O)CN(C)C)cc1 (stereo not drawn) [Compound 9] | 2 ± 7.45% | – | KV10.1 inhibitory activity (KV10.1 [2]): inactive
CN(C)CC(O)COc1ccc(Nc2ccc(C(F)(F)F)cc2N)cc1 (stereo not drawn) [Compound 10] | 57 ± 21.7% | – | –
CN(C)CC(O)COc1ccc(Nc2ccc(C(F)(F)F)cc2)cc1 (stereo not drawn) [Compound 6] | 57.5 ± 28.4% | – | melting point: 76.3 to 79.1 °C
CN1CCN(S(=O)(=O)c2ccc(CNC(=O)c3ccccc3)s2)CC1 [ZVS-02] | – | 5.03 ± 2.87% | –
COc1ccc(F)cc1C(=O)NCc1cnc(C2CCN(C)C2)[nH]1 (stereo not drawn) [ZVS-07] | – | 4.68 ± 1.63% | –
CN(C)CC(O)COc1ccc(Nc2ccccc2C(=O)O)cc1 (stereo not drawn) [Compound 11] | 37.7 ± 7.13% | – | KV10.1 inhibitory activity (KV10.1 [2]): inactive
O=[N+]([O-])c1ccccc1Nc1ccc(OCC(O)CN2CCOCC2)cc1 (stereo not drawn) [Compound 2] | 23.9 ± 26.8% | – | melting point: 95.6 to 97.5 °C
O=[N+]([O-])c1cc(C(F)(F)F)ccc1Nc1ccc(OCC(O)CNc2ccccc2)cc1 (stereo not drawn) [Compound 5] | 2.53 ± 11.7% | – | –
CC(=O)NCC(O)COc1ccc(Nc2ccc(C(F)(F)F)cc2[N+](=O)[O-])cc1 (stereo not drawn) [Compound 12] | 16.6 ± 38.4% | – | –
CN1CCN(c2cc(CNC(=O)c3cc(=O)[nH]c4ccccc34)ccn2)CC1 [ZVS-06] | – | -7.5 ± 4.65% | –
CN1CCN(c2cc(CNC(=O)Cc3noc4ccccc34)ccn2)CC1 [ZVS-05] | – | 8.84 ± 4.92% | –
CN(C)CC(O)COc1ccc(Nc2ccccc2[N+](=O)[O-])cc1 (stereo not drawn) [Compound 7] | 21 ± 30.3% | – | melting point: 76.1 to 77.3 °C
Cc1cccnc1C(=O)NCc1cnc(CCC2CCN(C)CC2)cn1 [ZVS-01] | – | -1.13 ± 4.5% | –
